{
  "source": "paper PMC2667896",
  "about": "(Archives of Drug Information, 2009)",
  "key": {"CYP3A4": {"system": "CYP3A4", "conditions": "cited from earlier work"}, "[1]": {"assay": "Steady-state plasma pharmacokinetics in healthy volunteers", "assay_type": "in vivo, human"}, "[2]": {"conditions": "cited from earlier work"}, "[3]": {"conditions": "Day 11, Arm 1, participant 2, saquinavir/ritonavir 1,000/100 mg orally twice daily"}, "[4]": {"conditions": "Day 11, Arm 1, participant 4, saquinavir/ritonavir 1,000/100 mg orally twice daily"}, "[5]": {"conditions": "Day 12, Arm 1, participant 2, saquinavir/ritonavir 1,000/100 mg orally twice daily"}, "[6]": {"conditions": "Day 12, Arm 1, participant 4, saquinavir/ritonavir 1,000/100 mg orally twice daily"}, "[7]": {"conditions": "Day 13, Arm 1, participant 2, saquinavir/ritonavir 1,000/100 mg orally twice daily"}, "[8]": {"conditions": "Day 13, Arm 1, participant 4, saquinavir/ritonavir 1,000/100 mg orally twice daily"}},
  "note": "Read-outs that look alike come from different tables or passages of the source.",
  "data": [
    {"smiles": "CC(C)(C)NC(=O)[C@@H]1C[C@@H]2CCCC[C@@H]2CN1C[C@@H](O)[C@H](Cc1ccccc1)NC(=O)[C@H](CC(N)=O)NC(=O)c1ccc2ccccc2n1", "note": "[Saquinavir]", "values": [
      {"measurement": "Effect on CYP3A4", "setting": "CYP3A4; saquinavir", "value": "weak CYP3A4 inhibitor"},
      {"measurement": "Individual trough plasma concentration", "setting": "[1]; [3]", "value": 337, "unit": "ng/mL"},
      {"measurement": "Individual trough plasma concentration", "setting": "[1]; [4]", "value": 602, "unit": "ng/mL"},
      {"measurement": "Individual trough plasma concentration", "setting": "[1]; [5]", "value": 640, "unit": "ng/mL"},
      {"measurement": "Individual trough plasma concentration", "setting": "[1]; [6]", "value": 700, "unit": "ng/mL"},
      {"measurement": "Individual trough plasma concentration", "setting": "[1]; [7]", "value": 867, "unit": "ng/mL"},
      {"measurement": "Individual trough plasma concentration", "setting": "[1]; [8]", "value": "1,220 ng/mL"},
      {"measurement": "Tmax", "setting": "[1]; human, plasma, po", "value": 2, "unit": "h"},
      {"measurement": "half-life", "setting": "[1]; human, plasma, po", "value": 5.98, "unit": "h"}
    ]},
    {"smiles": "CC(C)c1nc(CN(C)C(=O)N[C@H](C(=O)N[C@@H](Cc2ccccc2)C[C@H](O)[C@H](Cc2ccccc2)NC(=O)OCc2cncs2)C(C)C)cs1", "note": "[Ritonavir]", "values": [
      {"measurement": "Individual trough plasma concentration", "setting": "[1]; [3]", "value": 57.8, "unit": "ng/mL"},
      {"measurement": "Individual trough plasma concentration", "setting": "[1]; [4]", "value": 137, "unit": "ng/mL"},
      {"measurement": "Individual trough plasma concentration", "setting": "[1]; [5]", "value": 83.8, "unit": "ng/mL"},
      {"measurement": "Individual trough plasma concentration", "setting": "[1]; [6]", "value": 163, "unit": "ng/mL"},
      {"measurement": "Individual trough plasma concentration", "setting": "[1]; [7]", "value": 86.2, "unit": "ng/mL"},
      {"measurement": "Individual trough plasma concentration", "setting": "[1]; [8]", "value": 251, "unit": "ng/mL"},
      {"measurement": "half-life", "setting": "[1]; human, plasma, po", "value": 3.53, "unit": "h"},
      {"measurement": "Tmax", "setting": "[1]; steady state (day 14), Arm 1, participant 2, saquinavir/ritonavir 1,000/100 mg orally twice daily", "value": 1.00, "unit": "h"}
    ]},
    {"smiles": "O=C1Nc2ccc(Cl)cc2[C@@](C#CC2CC2)(C(F)(F)F)O1", "note": "[Efavirenz]", "values": [
      {"measurement": "Effect on CYP3A4", "setting": "CYP3A4; efavirenz", "value": "potent inducer"},
      {"measurement": "Individual trough plasma concentration", "setting": "[1]; Day 11, Arm 2, participant 1, efavirenz 600 mg orally once daily", "value": "1,080 ng/mL"},
      {"measurement": "Individual trough plasma concentration", "setting": "[1]; Day 12, Arm 2, participant 1, efavirenz 600 mg orally once daily", "value": "1,050 ng/mL"},
      {"measurement": "Individual trough plasma concentration", "setting": "[1]; Day 13, Arm 2, participant 1, efavirenz 600 mg orally once daily", "value": "1,060 ng/mL"},
      {"measurement": "AUC", "setting": "[1]; human, plasma, po, 600 mg", "value": 42500, "unit": "ng·h/mL"},
      {"measurement": "Cmax", "setting": "[1]; human, plasma, po, 600 mg", "value": 4780, "unit": "ng/mL"},
      {"measurement": "Tmax", "setting": "[1]; human, plasma, po, 600 mg", "value": 2, "unit": "h"},
      {"measurement": "half-life", "setting": "[1]; human, plasma, po, 600 mg", "value": 26.5, "unit": "h"},
      {"measurement": "half-life", "setting": "[2]", "value": "40 to 55", "unit": "h"}
    ]}
  ]
}
